Experimental findings from ChEMBL document CHEMBL1148796 (J Med Chem, 2007) are described below.

Data set [1] has as its system Human immunodeficiency virus 1. Nature of the data set: Antiviral activity against HIV1 RT K103N-Y181C mutant in MT4 cells by MTT assay. It counts as functional. To be noted: Human immunodeficiency virus 1, MT4; read-out: ED50 (the source's name). For orientation: Formazan colour is commonly taken as a measure of viable cells.
The nature of data set [2]: Selectivity index, ratio of TC50 for C8166 cells to ED50 for HIV1. It is filed as functional.
Data set [3] is described as follows: Selectivity index, ratio of TC50 for MT4 cells to ED50 for HIV1. It is filed as functional.
The subject of data set [4] is Human immunodeficiency virus 1. Nature of the data set: Antiviral activity against HIV1 RT Y181C mutant in MT4 cells by MTT assay. It counts as functional. To be noted: Human immunodeficiency virus 1, MT4; read-out: ED50 (the source's name).
Data set [5] deals with Human immunodeficiency virus 1. Nature of the data set: Antiretroviral activity against wild type HIV1 in MT4 cells by MTT assay. It is filed as functional. The following applies: Human immunodeficiency virus 1, MT4; read-out: ED50 (the source's name).
The subject of data set [6] is Human immunodeficiency virus 1. Nature of the data set: Antiviral activity against HIV1 3B in MT4 cells by MTT assay. It counts as functional. The following applies: Human immunodeficiency virus 1, 3B, read-out: ED50 (the source's name).
The nature of data set [7]: Cytotoxicity against MT4 cells by MTT assay. It counts as cell-based. The following applies: human, read-out: TC50 (the source's name).
The subject of data set [8] is Human immunodeficiency virus 1. Nature of the data set: Antiretroviral activity against HIV1 wild type in C8166 cells by MTT assay. It counts as functional. To be noted: Human immunodeficiency virus 1, C8166; read-out: ED50 (the source's name).
Data set [9] can be described thus: Cytotoxicity against mock-infected C8166 cells by MTT assay. It is filed as cell-based. To be noted: human, read-out: TC50 (the source's name).
The test system of data set [10] is Human immunodeficiency virus 1. Nature of the data set: Antiviral activity against HIV1 RT 112 mutant in lymphocytes assessed as reduction of p24 antigen production. It counts as functional. To be noted: read-out: ED50 (the source's name).
Data set [11] concerns Human immunodeficiency virus 1. Nature of the data set: Antiviral activity against wild type HIV1 3B in lymphocytes assessed as reduction of p24 antigen production. It is filed as functional. To be noted: Human immunodeficiency virus 1, 3B; read-out: ED50 (the source's name).
For data set [12], the system named is Human immunodeficiency virus 1. Nature of the data set: Antiviral activity against HIV1 RT AB1 mutant in lymphocytes assessed as reduction of p24 antigen production. It is filed as functional. The following applies: read-out: ED50 (the source's name).
Data set [13] is described as follows: Cytotoxicity against lymphocytes. It is filed as cell-based, Lymphocyte. To be noted: human, read-out: TC50 (the source's name).
Data set [14] is described as follows: Selectivity index, ratio of TC50 for lymphocytes to ED50 for HIV1 RT AB1 mutant. It is filed as functional.
Data set [15] relates to Human immunodeficiency virus type 1 reverse transcriptase (Human immunodeficiency virus 1), Q72547 [L100I].
Description: Inhibition of HIV1 RT L100I mutant
Data set [16] is described as follows: Selectivity index, ratio of TC50 for lymphocytes to ED50 for HIV1 RT 112 mutant. It is filed as functional.
A short description of data set [17]: Selectivity index, ratio of TC50 for lymphocytes to ED50 for HIV1 3B. It is filed as functional, Homo sapiens.
The subject of data set [18] is Human immunodeficiency virus type 1 reverse transcriptase (Human immunodeficiency virus 1), Q72547 [K103N].
Description: Inhibition of HIV1 RT K103N mutant
The target in data set [19] is Human immunodeficiency virus type 1 reverse transcriptase (Human immunodeficiency virus 1) (UniProt Q72547).
Description: Inhibition of wild type HIV1 RT
The subject of data set [20] is Human immunodeficiency virus type 1 reverse transcriptase (Human immunodeficiency virus 1), Q72547 [Y181I].
In data set [21] the test system is Human immunodeficiency virus 1. Nature of the data set: Antiretroviral activity against HIV1 3BBa-L in macrophages assessed as reduction of p24 antigen production. It is filed as functional. The following applies: Human immunodeficiency virus 1, 3BBa-L; read-out: ED50 (the source's name).
The nature of data set [22]: Selectivity index, ratio of TC50 for macrophages to ED50 for HIV1 3BBa-L. It is filed as functional.
Data set [23] is described as follows: Cytotoxicity against macrophages. It counts as cell-based, Macrophage. To be noted: human, read-out: TC50 (the source's name).

For `Cc1cc(C)cc(S(=O)(=O)c2c(C(N)=O)[nH]c3c(F)cc(F)cc23)c1`, the EC50 in [1] is more than 20000 nM; in [4] it was 1500 nM; in data set [5], 7 nM; in data set [6], 7 nM; in data set [8], 25 nM. Also, the figures for the Selectivity index in [2] and in [3] were more than 800 and more than 2857, respectively. Further, the CC50 in data set [7] and in data set [9] was more than 20000 nM each time.

As for `Cc1cc(C)cc(S(=O)(=O)c2c(C(N)=O)[nH]c3cc(Cl)c(F)cc23)c1`, the EC50 in data set [1] is 12000 nM; in data set [4], 700 nM; in data set [5], 50 nM; in [6], 50 nM; in [8], 50 nM. Besides, the Selectivity index was more than 400 in data set [2] and 360 in data set [3]. The figures for the CC50 in [7] and in data set [9] were 18000 nM and more than 20000 nM, respectively.

As for `O=C1Nc2ccc(Cl)cc2[C@@](C#CC2CC2)(C(F)(F)F)O1` [EFAVIRENZ], the EC50 in [1] was 200 nM; in data set [4] it was 10 nM; in [10] it was more than 20000 nM; in data set [11], 7 nM; in data set [12] it was more than 20000 nM. Also, in data set [13], the CC50 was more than 20000 nM.

In the case of `Cc1cc(C)cc(S(=O)(=O)c2c(C(N)=O)[nH]c3cc(F)c(Cl)cc23)c1`, the EC50 in [1] was more than 20000 nM; in data set [4], 50 nM; in data set [5] it was 12 nM; in data set [6] it was 12 nM; in data set [8], 10 nM. In addition, the values for the Selectivity index in data set [2] and in data set [3] were more than 2000 and more than 1667, respectively. Besides, the CC50 in data set [7] and in [9] was more than 20000 nM in each case.

Take `Cc1cc(C)cc(S(=O)(=O)c2c(C(N)=O)[nH]c3ccc(Cl)c(F)c23)c1`: the Selectivity index in [14] is more than 1667; in data set [16], more than 2000; in data set [2] it was more than 25000; in [3] it was more than 40000; in data set [17] it was more than 2500; in data set [22] it was more than 2000. Also, the EC50 came out at 300 nM in data set [1]; 4 nM in [4]; 0.5 nM in [5]; 10 nM in data set [10]; 0.5 nM in [6]; 10 nM in data set [21]. Moreover, the EC50 in [8] is 0.8 nM; in data set [11], 8 nM; in data set [12] it was 12 nM. The ID50 was determined as 2 nM in [15], 6 nM in [18], 3 nM in [19] and 29 nM in [20]. Moreover, the CC50 in data set [7], in data set [23], in [13] and in data set [9] was more than 20000 nM in each case.

Regarding `NC(=O)c1[nH]c2cc(F)c(F)cc2c1S(=O)(=O)c1ccccc1`, the EC50 is more than 20000 nM in data set [1]; 8200 nM in [4]; 16 nM in data set [5]; 16 nM in data set [6]; 20 nM in data set [8]. Besides, the Selectivity index in data set [2] is recorded as more than 1000; in data set [3], more than 1250. Moreover, the CC50 in [7] and in [9] was more than 20000 nM in each case.

On to `Cc1cc(C)cc(S(=O)(=O)c2c(C(N)=O)[nH]c3ccc(F)c(Cl)c23)c1`, for which the EC50 in data set [1] is more than 20000 nM; in data set [4] it was 2200 nM; in data set [5], 8 nM; in data set [6], 8 nM; in [8], 9 nM. In addition, the Selectivity index in data set [2] was more than 2222; in data set [3], more than 2500. Also, the CC50 in data set [7] and in data set [9] was more than 20000 nM throughout.

As to `Cc1ccnc2c1NC(=O)c1cccnc1N2C1CC1` [NEVIRAPINE], the EC50 is more than 20000 nM in [1]; 14000 nM in data set [4]; more than 20000 nM in data set [10]; 50 nM in [6]; 90 nM in [11]; more than 20000 nM in data set [12]. For the same compound, the ID50 in [15] was 9000 nM; in data set [18], 7000 nM; in data set [19], 400 nM; in [20] it was more than 20000 nM. Further, the Selectivity index in data set [17] was more than 222. In data set [13], the CC50 is more than 20000 nM.

With `NC(=O)c1[nH]c2ccc(F)c(F)c2c1S(=O)(=O)c1ccccc1`, the EC50 in [1] was determined as 18000 nM; in data set [4] it was 600 nM; in data set [5] it was 8 nM; in [6] it was 8 nM; in [8] it was 10 nM. Also, the Selectivity index in data set [2] is listed as more than 2000; in [3] it was more than 2500. The CC50 in [7] and in [9] was more than 20000 nM throughout.

Regarding `NC(=O)c1[nH]c2cc(Cl)c(Cl)cc2c1S(=O)(=O)c1ccccc1`, the EC50 was more than 20000 nM in data set [1]; 1700 nM in data set [4]; 80 nM in data set [5]; 80 nM in data set [6]; 100 nM in data set [8]. For the same compound, the Selectivity index in [2] is listed as more than 200; in data set [3] it was more than 250. Further, the CC50 in data set [7] and in data set [9] was more than 20000 nM each time.

Consider `Cc1cc(C)cc(S(=O)(=O)c2c(C(N)=O)[nH]c3cc(F)c(F)cc23)c1`, for which the EC50 is more than 20000 nM in data set [1]; 400 nM in data set [4]; 20 nM in data set [5]; 20 nM in data set [6]; 30 nM in data set [8]. For the same compound, the Selectivity index is on record as more than 667 in data set [2] and more than 1000 in data set [3]. The CC50 in data set [7] and in data set [9] was more than 20000 nM throughout.

Regarding `Cc1cc(C)cc(S(=O)(=O)c2c(C(N)=O)[nH]c3c(Cl)cc(Cl)cc23)c1`, the EC50 in data set [1] was more than 20000 nM; in [4] it was 4200 nM; in data set [5], 21 nM; in data set [6], 21 nM; in data set [8], 12 nM. The Selectivity index in data set [2] is given as more than 1667; in data set [3], more than 952. The CC50 in data set [7] and in data set [9] was more than 20000 nM each time.

As to `Cc1cc(C)cc(S(=O)(=O)c2c(C(N)=O)[nH]c3cc(Cl)c(Cl)cc23)c1`, the EC50 was more than 20000 nM in [1]; 1000 nM in data set [4]; 10 nM in data set [5]; 10 nM in data set [6]; 15 nM in [8]. In addition, the Selectivity index is listed as more than 1333 in data set [2] and more than 2000 in data set [3]. Further, the CC50 in [7] and in [9] was more than 20000 nM in each case.

For the compound `Cc1cc(C)cc(S(=O)(=O)c2c(C(N)=O)[nH]c3ccc(F)c(F)c23)c1`, the Selectivity index in data set [14] is recorded as more than 238; in data set [16], more than 154; in data set [2], more than 6667; in [3] it was more than 20000; in [17] it was more than 1000; in data set [22] it was more than 870. Further, the EC50 is 1200 nM in data set [1]; 50 nM in data set [4]; 1 nM in [5]; 130 nM in data set [10]; 1 nM in data set [6]; 23 nM in data set [21]. For the same compound, the EC50 worked out at 3 nM in [8], 20 nM in data set [11] and 84 nM in data set [12]. In addition, the ID50 in [15] amounted to 90 nM; in [18] it was 1000 nM; in [19], 1.7 nM; in [20], 2050 nM. In addition, the CC50 in data set [7], in data set [23], in [13] and in [9] was more than 20000 nM in each case.
